Source: patent US10556005B2 (priority 2011, dated 2020)

What was measured:
[1] = Observation of administered mice for abnormality / induration at topical area; assay type: in vivo; conditions: mice administered with citrulline; compared with induration seen where Alum is administered
[2] = test system: HA antigen of influenza virus (strain: A/Solomon); parameters: species or system BALB/c mice; conditions: mouse, in vivo, sc

NC(=O)NCCCC(N)C(=O)O (centres unmarked) [citrulline, 2-amino-5-(carbamoylamino)-pentanoic acid]
abnormality / induration in mice administered [1]: neither abnormality nor induration | adjuvant effect compared with Alum adjuvant (in words) [2]: same extent as that of Alum adjuvant
